{"source": "patent US4602026A", "about": "“Ophthalmic topical agent for remedy of diseases of iris and ciliary body” (Senju Pharmaceutical Co., Ltd., priority 1984, dated 1986)", "key": {"mice and rats": {"test_system": "mice and rats", "assay": "Acute toxicity test, symptoms and findings common to mice and rats", "format": "in vivo", "details": "for life period in the death cases: both animals", "protocol": "(§1) Acute toxicity test was conducted on rats aged four weeks to which 5-(3-ethoxy-4-pentyloxyphenyl)-2,4-thiazolidinedione was administered.\nThe following symptoms in common with the mice and rats were observed."}, "Mouse": {"test_system": "Mouse", "assay": "Acute toxicity test, mouse", "format": "in vivo", "details": "mice"}, "[1]": {"assay": "Acute toxicity test, mouse", "format": "in vivo", "details": "mouse, in vivo"}, "in vivo": {"assay": "in vivo", "details": "rat, in vivo", "protocol": "as §1"}, "Rat": {"test_system": "Rat", "assay": "in vivo", "protocol": "as §1"}, "[2]": {"details": "ip, intraperitoneal injection, female"}, "[3]": {"details": "ip, intraperitoneal injection, male"}, "[4]": {"details": "po, oral administration, female"}, "[5]": {"details": "sc, subcutaneous injection, female"}, "[6]": {"details": "sc, subcutaneous injection, male"}}}
{"smiles": "CCCCCOc1ccc(C2SC(=O)NC2=O)cc1OCC", "note": "(centres unmarked) [5-(3-ethoxy-4-pentyloxyphenyl)-2,4-thiazolidinedione]", "values": [{"measurement": "General symptoms", "setting": "mice and rats; in vivo, sc", "value": "3 or 5 hours after the administration, a slight suppression of spontaneous motility was found, and then, lowering in tonus of the abdominal muscle, walking disorder, lacrimation and respiratory depression were observed"}, {"measurement": "life period in the death cases", "setting": "mice and rats; intraperitoneal administration", "value": "2 to 24", "unit": "h"}, {"measurement": "Observation on dissection, death cases", "setting": "mice and rats; mice and rats", "value": "congestion of the lung was observed in both mice and rats"}, {"measurement": "life period in the death cases", "setting": "mice and rats; oral administration, major cases", "value": "2 to 24", "unit": "h"}, {"measurement": "life period in the death cases", "setting": "mice and rats; oral administration, minor cases", "value": "48 to 96", "unit": "h"}, {"measurement": "life period in the death cases", "setting": "mice and rats; subcutaneous administration", "value": "from the night of the administration day to three days after the administration"}, {"measurement": "General symptoms, additional in mice", "setting": "Mouse; intraperitoneal injection", "value": "projection of the eyeball, a secretion in the margin of palpebra, fall of the body surface temperature and a slight degree of tremor in a few cases were seen"}, {"measurement": "General symptoms, additional in mice", "setting": "Mouse; oral administration", "value": "lacrimation, a secretion in the margin of palpebra and fall of the body surface temperature were additionally observed"}, {"measurement": "General symptoms, additional in mice", "setting": "Mouse; subcutaneous injection, next day after administration", "value": "projection of the eyeball, a secretion in the margin of palpebra and fall of the body surface temperature were additionally seen"}, {"measurement": "LD50", "setting": "[1]; [2]", "value": 500, "unit": "mg/kg"}, {"measurement": "LD50", "setting": "[1]; [3]", "value": 560, "unit": "mg/kg"}, {"measurement": "LD50", "setting": "[1]; [4]", "value": 2150, "unit": "mg/kg"}, {"measurement": "LD50", "setting": "[1]; po, oral administration, male", "value": 2320, "unit": "mg/kg"}, {"measurement": "LD50", "setting": "[1]; [5]", "value": 2270, "unit": "mg/kg"}, {"measurement": "LD50", "setting": "[1]; [6]", "value": 1720, "unit": "mg/kg"}, {"measurement": "LD50", "setting": "in vivo; [2]", "value": 520, "unit": "mg/kg"}, {"measurement": "LD50", "setting": "in vivo; [3]", "value": 490, "unit": "mg/kg"}, {"measurement": "LD50", "setting": "in vivo; [4]", "value": 4330, "unit": "mg/kg"}, {"measurement": "LD50", "setting": "in vivo; po, oral administration, male", "value": 5300, "unit": "mg/kg"}, {"measurement": "LD50", "setting": "in vivo; [5]", "value": 3300, "unit": "mg/kg"}, {"measurement": "LD50", "setting": "in vivo; [6]", "value": 3210, "unit": "mg/kg"}, {"measurement": "Observation on dissection", "setting": "Rat; rat, in vivo, po", "value": "atrophy of the thymus gland was further seen"}, {"measurement": "Observation on dissection, survival cases", "setting": "Rat; rats, subcutaneous administration, injection area", "value": "formed with a cyst of hen's egg size in the injection area, and the cyst was found to contain an extremely small amount of unabsorbed medicament and a small amount of extravasation liquid"}]}
